According to US20250295790A1, “LECTIN-TARGETING CONJUGATES” (Helmholtz-Zentrum für Infektionsforschung GmbH, priority 2021, published 2025):
Converted amounts (≈) assume the structure as drawn. “Also recorded” adds a separate entry of the source. Like-named read-outs stand apart in the source and are kept apart here.

Columns and labels:
[1] = test system: P. aeruginosa PA14; test: Antibiotic susceptibility (MIC assay, broth microdilution); type: cell-based, Pseudomonas aeruginosa PA14
Method: Bacterial strains were streaked on LB-agar plates (1% agar) from glycerol stocks and incubated at 37° C. overnight. Colonies were picked from plate and dispersed in fresh MiGler-Hinton broth II (MHB II) to yield an OD600 of 0.08-0.13. This dispersion was diluted 1:100 in fresh MHB II, which was then used for the assay to achieve a final inoculum of 5×10^5 CFU/mL. 50 μL inoculum was mixed with 50 μL of the serial dilution in the corresponding well of the 96-well plate.
The different matrices were prepared under sterile conditions: (i) 5 mL human plasma and 1 mL sterile filtrate from an P. aeruginosa PA14 overnight culture in LB were mixed with 4 mL PBS; (ii) 1 mL sterile filtrate from an P. aeruginosa PA14 overnight culture was diluted in 9 mL PBS; (iii) PBS only and (iv) 5 mL human plasma and 1 mL LB were mixed with 4 mL PBS. 6 L of each compound dilution series was diluted in 115 L matrix (˜-1:20 dilution) in a 96-well format at time point T=−3 h or T=−10 min.
The plates prepared at T=−3 h were sealed with gas-permeable foil and incubated at 37° C. in a humid incubator. The other plates were kept at room temperature. At T=0 h, 50 µL of each well was mixed with 50 μL incoculum (as described above) in double-concentrated MHBII in a sterile 96-well plate.
The plates were sealed with gas-permeable foil and incubated at 37° C. for 18-20 h in a humid incubator. Growth inhibition was assessed by visual inspection and given MIC values are the lowest concentration of antibiotic at which there was no visible growth.

[2] = Stability of conjugates in human blood plasma spiked with LB; type: in vitro ADME; settings: 50% human blood plasma spiked with 10% LB, within three hours
Method: (§1) A 1 mM solution of the studied compound was prepared in PBS (150 mM NaCl, 2.6 mM KCl, 1.4 mM KH2PO4, 10 mM Na2HPO4, pH 7.4) with 20% DMSO. 50 μL of this solution was diluted in 950 μL matrix or human plasma (spiked with 10% LB) on ice. After brief vortex, 100 μL were immediately treated with 100 μL ice-cold MeCN (spiked with […] diphenhydramine as internal standard). The rest of the solution was incubated at 37° C. and 500 rpm in an eppendorf thermomixer. At various time points (30, 60, 120, 180 min), 100 L sample were taken and treated as described above. […] The AUC of the parent drug and its cleavage products and the internal standard was quantified using Compass QuantAnalysis quantification software. The relative AUC was calculated by AUC (compound)/AUC(ISTD). Procaine was used as a positive control as it readily degrades in human plasma.

[3] = molecular target: T1, LecA (Pseudomonas aeruginosa, UniProt Q05097); test: Competitive binding assay based on fluorescence polarization with LecA
T1 construct: made in house
Method: LecA (according to Joachim et al.): A serial dilution of the test compounds was prepared in TBS/Ca (8.0 g/L NaCl, 2.4 g/L Tris, 0.19 g/L KCl, 0.15 g/L CaCl2·2 H2O), with 30% DMSO as co-solvent. […] The measured intensities were reduced by the values of only LecA in TBS/Ca and fluorescence polarization was calculated. The data was analysed with the MARS Data Analysis Software (BMG Labtech GmbH, Germany) and fitted according to the four-parameter variable slope model. Bottom and top plateaus were fixed according to the control compounds in each assay ((p-nitrophenyl)-p-D-galactoside) and the data was re-analysed with these values fixed. A minimum of three independent measurements on three plates was performed for each inhibitor.
Averages and standard deviations were calculated from at least three independent experiments.

[4] = Prodrug activation assay in human blood plasma spiked with P. aeruginosa PA14 culture supernatant; type: in vitro ADME, Pseudomonas aeruginosa PA14; settings: 50% human blood plasma spiked with 10% P. aeruginosa culture supernatant, within 3 h
Method: In the prodrug activation assay, the bacterial strain Pseudomonas aeruginosa PA14 wt (DSM 19882) was used. The strain was obtained from the German Collection of Microorganisms and Cell Cultures (DSMZ).
P. aeruginosa PA14 was streaked on LB-agar plates (1% agar) from glycerol stocks and incubated at 37° C. overnight. 2-5 colonies were picked and dispersed in 10 mL LB (10 g/L trypton, 10 g/L NaCl, 5 g/L yeast extracts). This dispersion was incubated overnight at 37° C., 180 rpm under high humidity. The culture was centrifuged (4000 ref, room temperature, 10 min) and the supernatant was filtered (0.22 m pore size). […]
as §1

[5] = molecular target: LecB PAO1 (Pseudomonas aeruginosa, UniProt Q9HYN5); type: binding; settings: target LecB PAO1
Method: LecB (LecB PAO1 according to Hauck et al. and LecB PA14 according to Sommer et al.): A serial dilution of the test compounds was prepared in TBS/Ca, with 20% DMSO as cosolvent. […] Fluorescence was measured and analysed as for LecA. Bottom and top plateaus were fixed according to the control compound in each assay (1-fucose) and the data was re-analysed with these values fixed. A minimum of three independent measurements on three plates was performed for each inhibitor.

[6] = target LecA, calculated as Ki from IC50, read-out: Ki ± s.d.
[7] = target LecA, read-out: IC50 ± s.d.
[8] = Matrix 1: PBS, pre-incubation 3 h
[9] = Matrix 1: PBS, pre-incubation <10 min
[10] = Matrix 2: 50% human blood plasma + 10% P. aeruginosa culture supernatant in PBS, pre-incubation 3 h
[11] = Matrix 2: 50% human blood plasma + 10% P. aeruginosa culture supernatant in PBS, pre-incubation <10 min
[12] = Matrix 3: 10% P. aeruginosa culture supernatant in PBS, pre-incubation 3 h
[13] = Matrix 3: 10% P. aeruginosa culture supernatant in PBS, pre-incubation <10 min
[14] = Matrix 4: 50% human blood plasma + 10% LB in PBS, pre-incubation <10 min
[15] = Matrix 4: 50% human blood plasma + 10% LB in PBS, pre-incubation 3 h

T1 sequence (Q05097 whole entry): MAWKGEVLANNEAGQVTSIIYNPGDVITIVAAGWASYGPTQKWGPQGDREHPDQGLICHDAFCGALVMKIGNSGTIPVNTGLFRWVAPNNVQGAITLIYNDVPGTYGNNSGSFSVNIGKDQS
Chain of LecB PAO1 (Q9HYN5 entry or part of it): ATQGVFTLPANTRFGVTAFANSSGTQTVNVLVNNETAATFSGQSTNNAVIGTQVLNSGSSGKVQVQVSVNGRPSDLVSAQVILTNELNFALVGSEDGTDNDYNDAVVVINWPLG

With `NC[C@@H]1CCN(c2nc3c(cc2F)c(=O)c(C(=O)O)cn3C2CC2)C1` [Compound 3, (S)-7-(3-(aminomethyl)-1-pyrrolidinyl)-1-cyclopropyl-6-fluoro-1,4-dihydro-4-oxo-1,8-naphthyridine-3-carboxylic acid, reference compound] the MIC ([1]; Pseudomonas aeruginosa, PA14, read-out: MIC (parent drug)) was 0.29 to 1.45 µM (≈ 0.1 to 0.502 µg/mL).

With `CC(C)CC(NC(=O)CNC(=O)C(C)NC(=O)c1ccc(SC2OC(CO)C(O)C(O)C2O)cc1)C(=O)NC(C)C(=O)NCC1CCN(c2cc3c(cc2F)c(=O)c(C(=O)O)cn3C2CC2)C1` (stereo not drawn) [Compound 48] the “release of antibiotic cargo” value [2] was “no significant release of their antibiotic cargo”, the Ki [3, 6] was 11.2 ± 0.73 µM and the IC50 [3, 7] was 28 ± 1.61 µM. For the same molecule, the MIC [1, 8] was over 25 µM, the MIC [1, 9] was over 25 µM and the MIC [1, 10] was 1.56 µM. The MIC [1, 11] was 3.13 to 12.5 µM, the MIC [1, 12] was 1.56 to 3.13 µM and the MIC [1, 13] was 1.56 to 3.13 µM. For the same molecule, the MIC [1, 14] was over 25 µM and the “release of antibiotic cargo” value [4] was “release their antibiotic cargo; also recorded: released a significant amount of their antibiotic cargo; also recorded: efficiently released their antibiotic cargo”.

For `CC(C)C[C@H](NC(=O)CNC(=O)[C@H](C)NC(=O)c1ccc(S[C@@H]2O[C@H](CO)[C@H](O)[C@H](O)[C@H]2O)cc1)C(=O)N[C@@H](C)C(=O)N1CCN(c2cc3c(cc2F)c(=O)c(C(=O)O)cn3C2CC2)CC1` [Compound 24], the “release of antibiotic cargo” value [2] was “no significant release of their antibiotic cargo”, the Ki [3, 6] was 12.9 ± 1.12 µM and the IC50 [3, 7] was 31.7 ± 2.46 µM. For the same molecule, the MIC [1, 8] was over 25 µM, the MIC [1, 9] was over 25 µM and the MIC [1, 10] was at least 25 µM. It also gave an MIC [1, 12] of at least 25 µM, an MIC [1, 13] of at least 25 µM and an MIC [1, 15] of at least 25 µM. The MIC [1, 14] was at least 25 µM and the “release of antibiotic cargo” value [4] was “do not release ciprofloxacin; also recorded: degradation stopped at the stage of the secondary amide Ala-ciprofloxacin”.

Work on `O=[N+]([O-])c1ccc(S[C@@H]2O[C@H](CO)[C@H](O)[C@H](O)[C@H]2O)cc1` [pNP-β-D-Gal, p-nitrophenyl-β-thio-galactoside, reference compound] yielded an IC50 [3] of 61.9 ± 0.6 µM and a Ki [3] of 26.9 ± 0.25 µM.

With `CC(C)CC(NC(=O)CNC(=O)C(C)NC(=O)c1ccc(S(=O)(=O)NCC2OC(C)C(O)C(O)C2O)cc1)C(=O)NC(C)C(=O)NCC1CCN(c2cc3c(cc2F)c(=O)c(C(=O)O)cn3C2CC2)C1` (stereo not drawn) [Compound 49] the IC50 [5] was 4.29 ± 2.99 µM, the “IC50 ± s.d.” value [5] was “one-digit micromolar range” and the Ki ([5]; calculated as Ki from IC50, read-out: Ki ± s.d.) was 1.75 ± 1.4 µM. For the same molecule, the “release of antibiotic cargo” value [2] was “no significant release of their antibiotic cargo”, the MIC [1, 8] was over 25 µM and the MIC [1, 9] was over 25 µM. The MIC [1, 10] was 1.56 to 3.13 µM, the MIC [1, 11] was 3.13 to 6.25 µM and the MIC ([1]; Matrix 3, <10 min pre-incubation (text b309)) was 3.13 µM (≈ 3.13 µg/mL). The MIC [1, 12] was 1.56 to 6.25 µM, the MIC [1, 13] was 3.13 to 6.25 µM and the MIC [1, 14] was at least 25 µM. For the same molecule, the “release of antibiotic cargo” value [4] was “release their antibiotic cargo; also recorded: released a significant amount of their antibiotic cargo; also recorded: efficiently released their antibiotic cargo”.

Work on `O=C(O)c1cn(C2CC2)c2cc(N3CCNCC3)c(F)cc2c1=O` [Compound 1, Ciprofloxacin, reference compound] yielded an MIC [1, 10] of 0.156 to 0.25 µM, an MIC [1, 11] of 0.25 to 0.313 µM and an MIC [1, 15] of 0.156 to 0.313 µM. It also gave an MIC [1, 14] of 0.156 to 0.313 µM.
